The values that follow come from patent US7825253B2, “2-aminoquinoline derivatives” (Hoffmann-La Roche Inc., priority 2006, dated 2010).

The test deals with T1, recombinant human 5-HT5A receptor (Homo sapiens, UniProt P47898).
T1 construct: expressed in transfected cells; host or cells: Human Embryonic Kidney-EBNA (HEK-EBNA) cells, transient cDNA expression; membranes
In words: [3H]LSD radioligand binding assay. The note with it: [3H]LSD approx. 1 nM; membranes from HEK-EBNA cells transiently expressing 5-HT5A; Ki from IC50 by Cheng-Prussoff. How it is done: A [^3H]LSD radioligand binding assay was used to determine the affinity of the compounds for the recombinant human 5-HT5A receptor, in membranes from transiently (cDNA) expressed 5-HT5A receptors in Human Embryonic Kidney-EBNA (HEK-EBNA) cells. Assay buffer consisted of Tris (50 mM) buffer containing 1 mM EGTA, 10 mM MgCl2 (pH 7.4) and 10 μM pargyline. The binding assay was carried out in 96-well-plates in the presence of [^3H]LSD (approximately 1 nM), approximately 2 μg/well of membrane protein, and 0.5 mg of Ysi-poly-l-lysine SPA beads in a final volume of 200 μl of buffer. Non-specific binding was defined using methiothepin 2 μM. Compounds were tested at 10 concentrations. All assays were conducted in duplicate and repeated at least two times. Assay plates were incubated for 120 min at room temperature before centrifugation. Bound ligand was determined using a Packard Topcount scintillation counter. IC50 values were calculated using a non-linear curve fitting program and Ki values calculated using the Cheng-Prussoff equation.

Molecules are shown by their SMILES.

T1 sequence (P47898 whole entry): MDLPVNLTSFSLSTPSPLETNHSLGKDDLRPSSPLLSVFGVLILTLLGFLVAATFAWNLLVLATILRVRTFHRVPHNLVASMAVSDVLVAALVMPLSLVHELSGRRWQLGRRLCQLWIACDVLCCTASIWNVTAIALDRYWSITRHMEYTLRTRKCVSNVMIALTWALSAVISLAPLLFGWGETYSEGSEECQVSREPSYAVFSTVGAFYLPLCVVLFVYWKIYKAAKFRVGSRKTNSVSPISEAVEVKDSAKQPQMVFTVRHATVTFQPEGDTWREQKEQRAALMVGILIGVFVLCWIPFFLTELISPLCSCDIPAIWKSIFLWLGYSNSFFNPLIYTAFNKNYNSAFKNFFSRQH

As to `Cc1cc2cccc(Nc3ccc4c(NCc5cc(F)cc(F)c5)cccc4n3)c2o1` [Example 132, N5-(3,5-Difluoro-benzyl)-N2-(2-methyl-benzofuran-7-yl)-quinoline-2,5-diamine], the Ki came to 15 nM.
The figure for `Cc1ccc(CNc2ccc3c(NS(=O)(=O)c4ccc(F)c(F)c4)cccc3n2)o1` [Example 74, 3,4-Difluoro-N-{2-[(5-methyl-furan-2-ylmethyl)-amino]-quinolin-5-yl}-benzenesulfonamide] is 12.9 nM; for `Cc1nc[nH]c1CNc1cccc2nc(Nc3cccc(C4CC4)c3)ccc12` [Example 166, N2-(3-Cyclopropyl-phenyl)-N5-(5-methyl-3H-imidazol-4-ylmethyl)-quinoline-2,5-diamine] it is 34.2 nM; for `Cc1ccc(CNc2ccc3c(NCc4c[nH]cn4)cccc3n2)o1` [Example 87, N5-(1H-Imidazol-4-ylmethyl)-N2-(5-methyl-furan-2-ylmethyl)-quinoline-2,5-diamine] it is 15.7 nM.
Take `COc1ccccc1CNc1ccc2c(NCc3[nH]cnc3C)cccc2n1` [Example 96, N2-(2-Methoxy-benzyl)-N5-(5-methyl-3H-imidazol-4-ylmethyl)-quinoline-2,5-diamine]: the Ki worked out at 19.4 nM.
The result for `Cc1cc2cccc(Nc3ccc4c(Nc5cccc6[nH]ccc56)cccc4n3)c2o1` [Example 113, N5-(1H-Indol-4-yl)-N2-(2-methyl-benzofuran-7-yl)-quinoline-2,5-diamine] reads 20.6 nM.
The result for `CC1(C)Cc2cccc(Nc3ccc4c(NC5CCS(=O)(=O)c6ccccc65)cccc4n3)c2O1` (racemic) [Example 144, rac-N2-(2,2-Dimethyl-2,3-dihydro-benzofuran-7-yl)-N5-(1,1-dioxo-1l6-thiochroman-4-yl)-quinoline-2,5-diamine] reads 15.4 nM.
The result for `COc1ccccc1CNc1ccc2c(NCc3c[nH]nn3)cccc2n1` [Example 106, N2-(2-Methoxy-benzyl)-N5-(1H-[1,2,3]triazol-4-ylmethyl)-quinoline-2,5-diamine] reads 30.4 nM; that for `O=S(=O)(Nc1cccc2nc(Nc3cccc4c3OCC4)ccc12)c1cc(F)cc(F)c1` [Example 139, N-[2-(2,3-Dihydro-benzofuran-7-ylamino)-quinolin-5-yl]-3,5-difluoro-benzenesulfonamide], 35.5 nM; that for `Cc1ccc(CNc2ccc3c(NS(=O)(=O)c4ccc(F)cc4)cccc3n2)o1` [Example 42, N-{2-[(5-Methyl-furan-2-ylmethyl)-amino]-quinolin-5-yl}-4-fluorobenzenesulfonamide], 12.5 nM.
On to `Cc1ccc(CNc2ccc3c(CCc4ccccn4)cccc3n2)o1` [Example 54, (5-Methyl-furan-2-ylmethyl)-[5-(2-pyridin-2-yl-ethyl)-quinolin-2-yl]-amine], for which the Ki came to 44.7 nM.
The figure for `Cc1nc[nH]c1CNc1cccc2nc(Nc3cccc4c3OC(C)(C)C4)ccc12` [Example 149, N2-(2,2-Dimethyl-2,3-dihydro-benzofuran-7-yl)-N5-(5-methyl-3H-imidazol-4-ylmethyl)-quinoline-2,5-diamine] is 3.97 nM; for `Cc1ccc(CNc2ccc3c(NCc4cc(F)cc(F)c4)cccc3n2)o1` [Example 120, N5-(3,5-Difluoro-benzyl)-N2-(5-methyl-furan-2-ylmethyl)-quinoline-2,5-diamine] it is 8.45 nM.
The figure for `Cc1ccc(CNc2ccc3c(NS(=O)(=O)c4cc(F)cc(F)c4)cccc3n2)s1` [Example 85, 3,5-Difluoro-N-{2-[(5-methyl-thiophen-2-ylmethyl)-amino]-quinolin-5-yl}-benzenesulfonamide] is 16.7 nM.
The result for `Cc1nc(CNc2cccc3nc(NCc4ccc(C)o4)ccc23)c[nH]1` [Example 90, N2-(5-Methyl-furan-2-ylmethyl)-N5-(2-methyl-1H-imidazol-4-ylmethyl)-quinoline-2,5-diamine] reads 52.9 nM; that for `Cc1ccc(CNc2ccc3c(NS(=O)(=O)c4ccc(Cl)s4)cccc3n2)o1` [Example 58, 5-Chloro-thiophene-2-sulfonic acid {2-[(5-methyl-furan-2-ylmethyl)-amino]-quinolin-5-yl}-amide], 7.61 nM.
Take `Cc1ccc(CNc2ccc3c(NS(=O)(=O)Nc4ccccc4)cccc3n2)o1` [Example 145, N-(2-{[(5-methyl-2-furyl)methyl]amino}quinolin-5-yl)-N′-phenylsulfamide]: the Ki was found to be 51.3 nM.
The result for `Cc1ccc(CNc2ccc3c(NCc4cccc5c4OCO5)cccc3n2)o1` [Example 103, N5-Benzo[1,3]dioxol-4-ylmethyl-N2-(5-methyl-furan-2-ylmethyl)-quinoline-2,5-diamine] reads 6.57 nM; that for `COc1ccccc1CNc1ccc2c(C(=NO)c3ccc(F)cc3)cccc2n1` [Example 167, (4-Fluoro-phenyl)-[2-(2-methoxy-benzylamino)-quinolin-5-yl]-methanone oxime], 7.19 nM; that for `Cc1ccc(CNc2ccc3c(NC4CCOc5ccccc54)cccc3n2)o1` (racemic) [Example 142, rac-N5-Chroman-4-yl-N2-(5-methyl-furan-2-ylmethyl)-quinoline-2,5-diamine], 37.1 nM.
The figure for `COCCOc1cccc(CNc2cccc3nc(NCc4ccc(C)o4)ccc23)c1` [Example 28, N5-[3-(2-Methoxy-ethoxy)-benzyl]-N2-(5-methyl-furan-2-ylmethyl)-quinoline-2,5-diamine] is 49.4 nM; for `Cc1ccc(CNc2ccc3c(CNc4ccccn4)cccc3n2)o1` [Example 37, (5-Methyl-furan-2-ylmethyl)-[5-(pyridin-2-ylaminomethyl)-quinolin-2-yl]-amine] it is 49.5 nM; for `COc1ccccc1CNc1ccc2c(NCc3cc[nH]n3)cccc2n1` [Example 98, N2-(2-Methoxy-benzyl)-N5-(1H-pyrazol-3-ylmethyl)-quinoline-2,5-diamine] it is 33.3 nM.
Consider `c1cc(Nc2ccc3c(NCc4ccc5[nH]cnc5c4)cccc3n2)cc(C2CC2)c1` [Example 165, N5-(1H-Benzoimidazol-5-ylmethyl)-N2-(3-cyclopropyl-phenyl)-quinoline-2,5-diamine], for which the Ki came to 6.43 nM.
The result for `Cc1ccc(CNc2ccc3c(NS(=O)(=O)c4cccc(F)c4)cccc3n2)o1` [Example 73, 3-Fluoro-N-{2-[(5-methyl-furan-2-ylmethyl)-amino]-quinolin-5-yl}-benzenesulfonamide] reads 21.4 nM; that for `Cc1ccc(CNc2ccc3c(NCc4ccc5[nH]cnc5c4)cccc3n2)o1` [Example 107, N5-(1H-Benzoimidazol-5-ylmethyl)-N2-(5-methyl-furan-2-ylmethyl)-quinoline-2,5-diamine], 3.92 nM.
The figure for `Cc1ccc(CNc2ccc3c(CNc4ccccc4)cccc3n2)o1` [Example 22, (5-Methyl-furan-2-ylmethyl)-(5-phenylaminomethyl-quinolin-2-yl)-amine] is 23.5 nM.
For `COc1ccccc1CNc1ccc2c(NCc3ccccc3OC)cccc2n1` [Example 6, N2,N5-Bis-(2-methoxy-benzyl)-quinoline-2,5-diamine], the inhibitory constant (Ki) was 10.2 nM.
The result for `CC1Cc2cccc(Nc3ccc4c(NS(=O)(=O)c5cc(F)cc(F)c5)cccc4n3)c2O1` (racemic) [Example 134, rac-3,5-Difluoro-N-[2-(2-methyl-2,3-dihydro-benzofuran-7-ylamino)-quinolin-5-yl]-benzenesulfonamide] reads 21.7 nM.
